Columns and labels:
[1] = Second-order rate constant of the reaction with glutathione, fluorescent HPLC; details: 1 eq. glutathione (0.5 mM), 50 mM ABC buffer, 1 mM EDTA, pH 8.5
Protocol: The second-order rate constant of the reaction between glutathione and EDANS-phosphinates CS265 and CS266 was determined according to the following procedure: The EDANS-phosphinate was reacted with 1 eq. of glutathione (0.5 mM) in the presence of 50 mM ABC buffer (ammonium bicarbonate buffer) and 1 mM EDTA at pH 8.5. The reactions were performed in a volume of 0.1 ml. The first sample (t=0) was drawn before the addition of glutathione. Samples were taken after 1, 2, 5, 12, 22 and 35 min (CS266) or after 30, 60, 120, 240 and 1440 min (CS265). Samples were drawn in a volume of 10 μl and immediately diluted into 200 μl of 50 mM NaOAc buffer at pH 3.5, to stop the reaction. Those samples were subjected to fluorescent HPLC analyses, injecting 50 μl each.

eGFP C70M S147C [2] = target: T1, eGFP C70M S147C (Aequorea victoria, UniProt P42212, C70M/F64L/H231L/S147C/S65T); experiment: Tandem-mass spectrometry of tryptically digested labelled eGFP; details: 10 eq. phosphinate, PBS pH 7.4, 10% DMSO
T1 construct: protease cleavage site highlighted with subscripts; His-tag (N); protease cleavage site (N); made in house
T1 sequence (P42212 with tags, fused parts or gaps F64L/S65T/C70M/S147C/H231L): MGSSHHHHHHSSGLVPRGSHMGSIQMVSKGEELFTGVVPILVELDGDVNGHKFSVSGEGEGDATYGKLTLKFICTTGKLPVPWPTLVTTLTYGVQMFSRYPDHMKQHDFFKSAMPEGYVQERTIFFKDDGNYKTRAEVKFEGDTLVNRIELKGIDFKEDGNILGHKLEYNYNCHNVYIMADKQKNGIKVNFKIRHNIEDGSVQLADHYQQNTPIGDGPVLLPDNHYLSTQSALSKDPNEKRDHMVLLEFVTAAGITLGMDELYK
Protocol: At first phosphinate-1 was reacted with an eGFP mutant containing a single addressable Cys (eGFP C70M S147C). Using 10 eq. phosphinate in PBS pH 7.4 containing 10% DMSO as a co-solvent, the reaction reached completion after 30 minutes (FIG. 5d).
1 in PBS (30 min, r.t.) followed by purification via 0.5 mL Zeba™ Spin Desalting Columns with 7K MWCO (Thermo Fisher Scientific, USA) into phosphate-buffer (20 mM, pH 7.5). Complete labeling was verified via intact-protein MS.

eGFP C70M S147C [3] = target: T1, eGFP C70M S147C; experiment: Second-order rate constant of the reaction with eGFP, intact protein-MS; details: one equivalent GFP, Tris-buffer (pH 8.3), 90 μM, room-temperature
Protocol: Subsequently, this new compound-class was compared with other Cys-reactive electrophiles in terms of reaction kinetics. The estimation of reaction-kinetics is particularly challenging for bis-reactive reagents because the second thiol addition interferes with the analysis. […] Consequently, 2 was reacted with one equivalent GFP in Tris-buffer (pH 8.3) at a concentration of 90 μM at room-temperature.
Determination of the second-order rate constant of the reaction between eGFP (C70M S147C) and phosphinate 2. […] Reactions were carried out in triplicate. 90 μl eGFP (0.1 mM) were mixed with 10 μl of a 0.9 mM solution of phosphinate 2 in DMSO. Samples were drawn after 60, 90, 150, 210 and 300 minutes and analyzed via intact protein-MS. […] Calculated by the intensity of the deconvoluted mass in relation to the internal standard eGFP (C70M). […] The slope corresponds to the second order rate constant. Shown are mean and error of three independent measurements.

## C#CP(=O)(OCC)c1cn(CCC(=O)NCCNc2cccc3c(S(=O)(=O)O)cccc23)nn1 (stereo not drawn) [CS266, EDANS-1,2,3-triazol-ethyl-ethynylphosphinate]
[1]
  reaction kinetics relative to CS265: roughly ten times faster than with CS265

## C#CP(=O)(C#C)OCC [compound 1, ethyl diethynyl phosphinate]
eGFP C70M S147C [2]
  amino acids modified (MS/MS): no amino acid other than Cys was modified

## C#CCCOP(=O)(C#C)C#C [compound 2, but-3-yn-1-yl-diethynylphosphinate]
eGFP C70M S147C [3]
  second-order rate constant: ~0.47 M⁻¹ s⁻¹

From patent publication US20240350655A1, “THIOL-CONJUGATION WITH UNSATURATED PHOSPHORUS(V) COMPOUNDS” (FORSCHUNGSVERBUND BERLIN E.V., priority 2021, published 2024)
